# Laboratory results reported in US20240240224A1, “FLUORESCENT D-TYPE AMINO ACID METABOLISM MARKER-BASED METHOD FOR DETECTING ANTIBACTERIAL DRUG SENSITIVITY TEST” (priority 2020, published 2024).
# Tests used:
# S. aureus ST398 [1] = experiment: FDAA metabolic labeling susceptibility test (Cy5-DAA probe, flow cytometry); assay type: cell-based; conditions: Staphylococcus aureus, ST398, 2 h, read-out: MIC, FDAA
# Procedure: (§1) Take the colony to be tested that has been cultured overnight on the plate and fully mix it in normal saline to make a uniform bacterial solution. Dilute it into Cation-Adjusted Mueller Hinton Broth (CAMHB) culture medium to make a bacterial solution with OD600=0.05. • 2. Add 45 μl antibiotic solutions of different concentrations to 96-well plates (see Table 1 for antibiotic concentration gradient settings). • 3. Add 50 μl of the bacterial solution prepared in step 1 to the 96-well plate and mix well. • 4. Add 5 μl of 10 mM Cy5-DAA probe (final concentration 0.15 mM, see FIG. 1 for its structure) into each well, mix well, and cultivate in dark for 2 hours. • 5. Add 200 μl After PBS solution is diluted, the fluorescence intensity of each sample is detected by flow cytometry. The flow detection results are shown in FIG. 4-5, showing the curve of the change of antibiotic concentration gradient and fluorescence intensity. The MIC (minimum inhibitory concentration) can be obtained by referring to this curve.
# S. aureus ST59 [2] = experiment: as above; assay type: cell-based; conditions: Staphylococcus aureus, ST59, 2 h, read-out: MIC, FDAA
# Procedure: as §1
# S. aureus ST5 [3] = experiment: as above; assay type: cell-based; conditions: Staphylococcus aureus, ST5, 2 h, read-out: MIC, FDAA
# Procedure: as §1
# S. aureus ST5 [4] = experiment: Vitek 2 drug sensitivity test; assay type: cell-based, Staphylococcus aureus; on Sensibility: key: S: Drug sensitive; R: Drug resistance
# S. aureus ST59 [5] = experiment: Vitek 2 drug sensitivity test; assay type: cell-based, Staphylococcus aureus; on Sensibility: key: S: Drug sensitive; R: Drug resistance
# S. aureus ST398 [6] = experiment: Vitek 2 drug sensitivity test; assay type: cell-based, Staphylococcus aureus; on Sensibility: key: S: Drug sensitive; R: Drug resistance
# S. aureus Sa22 [7] = experiment: BMD susceptibility test; assay type: cell-based, Staphylococcus aureus; conditions: unit assumed
# S. aureus ATCC29213 [8] = experiment: FaAST (FDAA metabolic labeling method); assay type: cell-based, Staphylococcus aureus; conditions: unit assumed
# Procedure: as §1
# (§2) Bacteria with antibiotic resistance are shown in bold in the following table.
# S. aureus Sa22 [9] = experiment: FaAST (FDAA metabolic labeling method); assay type: cell-based, Staphylococcus aureus; conditions: unit assumed
# Procedure: as §1, §2
# S. aureus Sa23 [10] = experiment: FaAST (FDAA metabolic labeling method); assay type: cell-based, Staphylococcus aureus; conditions: unit assumed
# Procedure: as §1, §2
# S. aureus Sa23 [11] = experiment: BMD susceptibility test; assay type: cell-based, Staphylococcus aureus; conditions: unit assumed
# S. aureus ATCC29213 [12] = experiment: BMD susceptibility test; assay type: cell-based, Staphylococcus aureus; conditions: unit assumed
# E. faecium Ef26 [13] = experiment: BMD susceptibility test; assay type: cell-based, Enterococcus faecium; conditions: unit assumed
# E. faecium Ef26 [14] = experiment: FaAST (FDAA metabolic labeling method); assay type: cell-based, Enterococcus faecium; conditions: unit assumed
# Procedure: as §1, §2
# E. faecium Ef28 [15] = experiment: FaAST (FDAA metabolic labeling method); assay type: cell-based, Enterococcus faecium; conditions: unit assumed
# Procedure: as §1, with “The flow detection results are shown in FIG. 4-5, showing the curve of the change of antibiotic concentration gradient and fluorescence intensity.” left out
# E. faecalis ATCC29212 [16] = experiment: BMD susceptibility test; assay type: cell-based, Enterococcus faecalis; conditions: unit assumed
# E. faecalis ATCC29212 [17] = experiment: FaAST (FDAA metabolic labeling method); assay type: cell-based, Enterococcus faecalis; conditions: unit assumed
# Procedure: as §1, §2
# S. aureus ATCC29213 [18] = conditions: cited from earlier work
# E. faecalis ATCC29212 [19] = conditions: cited from earlier work
# E. faecium Ef28 [20] = experiment: BMD susceptibility test; assay type: cell-based, Enterococcus faecium; conditions: unit assumed
Compound,BMD (MIC) (S. aureus Sa22 [7]) [µg/mL],FaAST (MIC) (S. aureus ATCC29213 [8]) [µg/mL],FaAST (MIC) (S. aureus Sa22 [9]) [µg/mL],FaAST (MIC) (S. aureus Sa23 [10]) [µg/mL],BMD (MIC) (S. aureus Sa23 [11]) [µg/mL],BMD (MIC) (S. aureus ATCC29213 [12]) [µg/mL],BMD (MIC) (E. faecium Ef26 [13]) [µg/mL],FaAST (MIC) (E. faecium Ef26 [14]) [µg/mL],FaAST (MIC) (E. faecium Ef28 [15]) [µg/mL],BMD (MIC) (E. faecalis ATCC29212 [16]) [µg/mL],FaAST (MIC) (E. faecalis ATCC29212 [17]) [µg/mL],CLSI QC range (S. aureus ATCC29213 [18]),CLSI QC range (E. faecalis ATCC29212 [19]),also measured
"CN[C@H](CC(C)C)C(=O)N[C@H]1C(=O)N[C@@H](CC(N)=O)C(=O)N[C@H]2C(=O)N[C@H]3C(=O)N[C@H](C(=O)N[C@H](C(=O)O)c4cc(O)cc(O)c4-c4cc3ccc4O)[C@H](O)c3ccc(c(Cl)c3)Oc3cc2cc(c3O[C@@H]2O[C@H](CO)[C@@H](O)[C@H](O)[C@H]2O[C@H]2C[C@](C)(N)[C@H](O)[C@H](C)O2)Oc2ccc(cc2Cl)[C@H]1O [Vancomycin, vancomycin]",1,1,2,2,1,1,0.5,0.25,32,2,2,0.5-2,1-4,MIC (S. aureus ST398 [1]): 2 µg/mL; MIC (S. aureus ST59 [2]): 2 µg/mL; MIC (S. aureus ST5 [3]): 4 µg/mL; Sensibility (S. aureus ST5 [4]): S; MIC (S. aureus ST5 [4]; Staphylococcus aureus): 1 µg/mL; Sensibility (S. aureus ST59 [5]): S; MIC (S. aureus ST59 [5]; Staphylococcus aureus): 1 µg/mL; Sensibility (S. aureus ST398 [6]): S; MIC (S. aureus ST398 [6]; Staphylococcus aureus): ≤ 0.5 µg/mL
teicoplanin,0.5,0.25,1,1,0.5,≤ 0.25,0.5,0.25,32,≤ 0.25,0.5,0.25-1^,0.25-1,BMD (MIC) (E. faecium Ef28 [20]): 16 µg/mL
